Data as given in the NIST ThermoML archive (doi:10.1016/j.tca.2015.06.017).
Numbers after ± are expanded uncertainties.

Conditions: Liquid, Vibrating tube method

CCCCCCC [heptane]
mass density [kg/m3]
Conditions | 283.15 K | 288.15 K | 293.15 K | 298.15 K | 303.15 K | 308.15 K | 313.15 K | 318.15 K | 323.15 K | 328.15 K
100 kPa | 692.57 ± 0.25 | 688.55 ± 0.25 | 684.19 ± 0.25 | 679.95 ± 0.25 | 675.68 ± 0.25 | 671.39 ± 0.25 | 667.06 ± 0.25 | 662.54 ± 0.25 | 658.32 ± 0.25 | 653.81 ± 0.25
2000 kPa | 694.49 ± 0.27 | 690.28 ± 0.27 | 686.15 ± 0.27 | 682.02 ± 0.27 | 677.75 ± 0.27 | 673.45 ± 0.27 | 669.26 ± 0.27 | 664.87 ± 0.27 | 660.53 ± 0.28 | 656.27 ± 0.28
5000 kPa | 697.06 ± 0.3 | 693.01 ± 0.3 | 688.99 ± 0.31 | 684.8 ± 0.31 | 680.76 ± 0.31 | 676.49 ± 0.31 | 672.35 ± 0.31 | 668.35 ± 0.31 | 664.05 ± 0.31 | 659.84 ± 0.32
7000 kPa | 698.8 ± 0.33 | 694.77 ± 0.33 | 690.74 ± 0.33 | 686.68 ± 0.33 | 682.65 ± 0.33 | 678.48 ± 0.33 | 674.51 ± 0.34 | 670.32 ± 0.34 | 666.33 ± 0.34 | 661.99 ± 0.34
10000 kPa | 701.2 ± 0.36 | 697.23 ± 0.36 | 693.41 ± 0.36 | 689.23 ± 0.37 | 685.52 ± 0.37 | 681.37 ± 0.37 | 677.42 ± 0.37 | 673.52 ± 0.37 | 669.41 ± 0.38 | 665.25 ± 0.38
20000 kPa | 709.08 ± 0.47 | 705.18 ± 0.47 | 701.57 ± 0.48 | 697.65 ± 0.48 | 694.07 ± 0.48 | 690.12 ± 0.49 | 686.53 ± 0.49 | 682.85 ± 0.49 | 679.17 ± 0.5 | 675.25 ± 0.5
30000 kPa | 716.12 ± 0.57 | 712.38 ± 0.58 | 708.99 ± 0.58 | 705.17 ± 0.59 | 701.86 ± 0.59 | 698.22 ± 0.6 | 694.65 ± 0.6 | 691.31 ± 0.6 | 687.64 ± 0.61 | 684.02 ± 0.61
40000 kPa | 722.63 ± 0.67 | 719.01 ± 0.68 | 715.7 ± 0.68 | 712.11 ± 0.69 | 708.87 ± 0.69 | 705.32 ± 0.7 | 702.08 ± 0.71 | 698.89 ± 0.71 | 695.38 ± 0.72 | 691.84 ± 0.72
50000 kPa | 728.63 ± 0.77 | 725.2 ± 0.77 | 722.03 ± 0.78 | 718.54 ± 0.79 | 715.5 ± 0.79 | 712.12 ± 0.8 | 708.98 ± 0.81 | 705.82 ± 0.81 | 702.5 ± 0.82 | 699.13 ± 0.83
60000 kPa | 734.33 ± 0.86 | 731.01 ± 0.87 | 728.02 ± 0.87 | 724.73 ± 0.88 | 721.67 ± 0.89 | 718.41 ± 0.9 | 715.39 ± 0.9 | 712.36 ± 0.91 | 709.15 ± 0.92 | 706.05 ± 0.93
65000 kPa | 736.99 ± 0.9 | 733.73 ± 0.91 | 730.72 ± 0.92 | 727.65 ± 0.93 | 724.56 ± 0.93 | 721.43 ± 0.94 | 718.32 ± 0.95 | 715.32 ± 0.96 | 712.32 ± 0.97 | 709.3 ± 0.97
